Measurements published in ChEMBL document CHEMBL1201862, “PubChem BioAssay data set” (2004).
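Dose response: 5 concentrations. Exposure: 48 h. Format: 96-well plates. Endpoint: linear interpolation; highest concentration if not reached. At the GI50, growth is halved.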 Calls of active or inactive are those of the source. No stated cut-off is given here; in the data, active = GI50 up to about 1.1 µM and inactive = higher.

Columns and labels:
Experiment in all cases: DTP human tumour cell line panel, 48 h
SK-MEL-5 = system: SK-MEL-5
SF-539 = system: SF-539
U-251 = system: U-251
SNB-75 = system: SNB-75
OVCAR-3 = system: OVCAR-3
PC-3 = system: PC-3
HOP-92 = system: HOP-92
NCI-H522 = system: NCI-H522
ACHN = system: ACHN
SW-620 = system: SW-620
786-0 = system: 786-0
NCI-H23 = system: NCI-H23
MCF7 = system: MCF7
UACC-62 = system: UACC-62
OVCAR-4 = system: OVCAR-4
NCI-H226 = system: NCI-H226
HOP-62 = system: HOP-62
NCI/ADR-RES = system: NCI/ADR-RES
COLO 205 = system: COLO 205
CCRF-CEM = system: CCRF-CEM

Measured: GI50

COC(=O)/C=C1\C(=O)C=C2[C@@H]3C[C@H]4C[C@H](CC[C@@]4(C)N21)C3(C)NC(C)=O (stereo not given in full)
inactive: SK-MEL-5 11.1 µM | SF-539 3.33 µM | U-251 17 µM | SNB-75 13.2 µM | OVCAR-3 11.8 µM | PC-3 15.1 µM | HOP-92 18 µM | NCI-H522 1.42 µM | ACHN 16 µM | SW-620 2.8 µM | 786-0 3.51 µM | NCI-H23 23.7 µM | MCF7 7.18 µM | UACC-62 17.6 µM | OVCAR-4 17.6 µM | NCI-H226 25.5 µM | HOP-62 20.7 µM | NCI/ADR-RES 26.5 µM | COLO 205 5.9 µM | CCRF-CEM 4.4 µM

O=C1C=C(NCCc2cc(Br)c(O)c(Br)c2)C(=O)c2[nH]cnc21
inactive: SK-MEL-5 15.6 µM | SF-539 22.4 µM | U-251 38.3 µM | SNB-75 21.9 µM | OVCAR-3 21.6 µM | PC-3 3.69 µM | HOP-92 29.7 µM | NCI-H522 21.2 µM | ACHN 42.9 µM | SW-620 21.6 µM | 786-0 > 100 µM | NCI-H23 10.8 µM | MCF7 22.9 µM | UACC-62 19.5 µM | OVCAR-4 19.1 µM | NCI-H226 23 µM | HOP-62 38.6 µM | NCI/ADR-RES > 100 µM | COLO 205 24.7 µM | CCRF-CEM 2.28 µM

CCOC(=O)c1[nH]cc(C)c1-c1ccn(-c2ccccc2)c1
inactive: SK-MEL-5 21.7 µM | SF-539 > 100 µM | U-251 49.4 µM | SNB-75 13.3 µM | OVCAR-3 19.6 µM | PC-3 30.6 µM | HOP-92 21.5 µM | NCI-H522 20.1 µM | ACHN 50.2 µM | SW-620 80.4 µM | 786-0 53.2 µM | NCI-H23 49.5 µM | MCF7 61 µM | UACC-62 36.8 µM | OVCAR-4 41.9 µM | NCI-H226 51.5 µM | HOP-62 > 100 µM | NCI/ADR-RES 36.2 µM | COLO 205 51.9 µM | CCRF-CEM 19.2 µM
